Measured values published in ChEMBL document CHEMBL3856189, “Synthesis of novel diterpenoid analogs with in-vivo antitumor activity” (Eur J Med Chem, 2016).
Activity calls are given as the source filed them. The calls are words filed in the database; no cut-off is given here.

Columns and labels:
[1] = Antiproliferative activity against human MDA-MB-231 cells after 96 hrs by SRB assay; format: functional, cell-based; details: MDA-MB-231, 96 h
[2] = Antiproliferative activity against human MCF7 cells after 96 hrs by SRB assay; format: functional, cell-based; details: MCF7, 96 h
[3] = Antiproliferative activity against human T47D cells after 96 hrs by SRB assay; format: functional, cell-based
[4] = Antiproliferative activity against human PC3 cells after 96 hrs by SRB assay; format: functional, cell-based; details: PC-3, 96 h
[5] = Antiproliferative activity against human DU145 cells after 96 hrs by SRB assay; format: functional, cell-based; details: DU-145, 96 h
[6] = Antiproliferative activity against human HCT116 cells after 96 hrs by SRB assay; format: functional, cell-based; details: HCT-116, 96 h
[7] = Antiproliferative activity against human HT-29 cells after 96 hrs by SRB assay; format: functional, cell-based; details: HT-29, 96 h
[8] = Antiproliferative activity against human HL60 cells after 96 hrs by SRB assay; format: functional, cell-based; details: HL-60, 96 h
[9] = Antiproliferative activity against HAF cells after 96 hrs by SRB assay; format: cell-based; details: Homo sapiens
[10] = Selectivity index, ratio of IC50 for HAF cells to IC50 for human MDA-MB-231 cells; format: functional
MCF7 = test: Selectivity index, ratio of IC50 for HAF cells to IC50 for human MCF7 cells; format: functional
T47D [11] = test: Selectivity index, ratio of IC50 for HAF cells to IC50 for human T47D cells; format: functional
PC-3 = test: Selectivity index, ratio of IC50 for HAF cells to IC50 for human PC3 cells; format: functional
DU-145 = test: Selectivity index, ratio of IC50 for HAF cells to IC50 for human DU145 cells; format: functional
HCT-116 = test: Selectivity index, ratio of IC50 for HAF cells to IC50 for human HCT116 cells; format: functional
[12] = Selectivity index, ratio of IC50 for HAF cells to IC50 for human HT-29 cells; format: functional
HL-60 = test: Selectivity index, ratio of IC50 for HAF cells to IC50 for human HL60 cells; format: functional
[13] = (§1) Inhibition of colony formation in human T47D cells after 7 days by crystal violet staining based assay; format: functional, cell-based; details: 168 h
T47D [14] = test: as §1; format: functional, cell-based
[15] = (§2) Antimigratory activity in human T47D cells assessed as inhibition of cell migration after 12 hrs by crystal violet staining based transwell migration assay; format: functional
T47D [16] = test: as §2; format: functional
T47D [17] = test: Induction of apoptosis in human T47D cells assessed as early apoptotic cells at 5 uM after 48 hrs by Annexin V-FITC/propidium iodide staining based flow cytometry (reference value: 1.75 %); format: functional
T47D [18] = test: Induction of apoptosis in human T47D cells assessed as late apoptotic cells at 5 uM after 48 hrs by Annexin V-FITC/propidium iodide staining based flow cytometry (reference value: 2.42 %); format: functional
T47D [19] = test: Induction of apoptosis in human T47D cells assessed as early apoptotic cells at 10 uM after 48 hrs by Annexin V-FITC/propidium iodide staining based flow cytometry (reference value: 1.75 %); format: functional
T47D [20] = test: Induction of apoptosis in human T47D cells assessed as late apoptotic cells at 10 uM after 48 hrs by Annexin V-FITC/propidium iodide staining based flow cytometry (reference value: 2.42 %); format: functional
T47D [21] = test: Induction of apoptosis in human T47D cells assessed as early apoptotic cells at 20 uM after 48 hrs by Annexin V-FITC/propidium iodide staining based flow cytometry (reference value: 1.75 %); format: functional
T47D [22] = test: Induction of apoptosis in human T47D cells assessed as late apoptotic cells at 20 uM after 48 hrs by Annexin V-FITC/propidium iodide staining based flow cytometry (reference value: 2.42 %); format: functional
[23] = Antitumor activity against human T47D cells xenografted in nude mouse assessed as tumor weight at 5 mg/kg/day, ip administered daily for 18 days measured every 3 days during compound dosing (reference value: 882 +/- 149 mg); format: functional
[24] = Antitumor activity against human T47D cells xenografted in nude mouse assessed as tumor volume at 5 mg/kg/day, ip administered daily for 18 days measured every 3 days during compound dosing (reference value: 1220 +/- 127 mm3); format: functional
Mus musculus [25] = test: Toxicity in nude mouse xenografted with human T47D cells assessed as body weight loss at 5 mg/kg/day, ip administered daily for 18 days measured every 3 days during compound dosing; format: organism-based; details: in vivo
Mus musculus [26] = test: Toxicity in nude mouse xenografted with human T47D cells assessed as diarrhoea at 5 mg/kg/day, ip administered daily for 18 days; format: organism-based; details: in vivo, 432 h
Mus musculus [27] = test: Toxicity in nude mouse xenografted with human T47D cells assessed as organ damage at 5 mg/kg/day, ip administered daily for 18 days; format: organism-based; details: in vivo, 432 h
Mus musculus [28] = test: Acute toxicity in nude mouse xenografted with human T47D cells assessed as mortality at 5 to 40 mg/kg/day, ip administered daily for 18 days measured on day 18 post last dose; format: organism-based; details: in vivo, 432 h
[29] = Potency index, ratio of podophyllotoxin IC50 to compound IC50 for human T47D cells; format: functional
T47D [30] = test: Antimigratory activity in human T47D cells assessed as inhibition of cell migration at 20 uM after 12 hrs by crystal violet staining based transwell migration assay; format: functional
T47D [31] = test: Induction of apoptosis in human T47D cells assessed as early apoptotic cells at 5 uM after 48 hrs by Annexin V-FITC/propidium iodide staining based flow cytometry (reference value: 1.49 %); format: functional
T47D [32] = test: Induction of apoptosis in human T47D cells assessed as late apoptotic cells at 5 uM after 48 hrs by Annexin V-FITC/propidium iodide staining based flow cytometry (reference value: 2.72 %); format: functional
T47D [33] = test: Induction of apoptosis in human T47D cells assessed as early apoptotic cells at 10 uM after 48 hrs by Annexin V-FITC/propidium iodide staining based flow cytometry (reference value: 1.49 %); format: functional
T47D [34] = test: Induction of apoptosis in human T47D cells assessed as late apoptotic cells at 10 uM after 48 hrs by Annexin V-FITC/propidium iodide staining based flow cytometry (reference value: 2.72 %); format: functional
T47D [35] = test: Induction of apoptosis in human T47D cells assessed as early apoptotic cells at 20 uM after 48 hrs by Annexin V-FITC/propidium iodide staining based flow cytometry (reference value: 1.49 %); format: functional
T47D [36] = test: Induction of apoptosis in human T47D cells assessed as late apoptotic cells at 20 uM after 48 hrs by Annexin V-FITC/propidium iodide staining based flow cytometry (reference value: 2.72 %); format: functional
[37] = Antitumor activity against human T47D cells xenografted in nude mouse assessed as tumor weight at 20 mg/kg/day, ip administered daily for 18 days measured every 3 days during compound dosing (reference value: 882 +/- 149 mg); format: functional
[38] = Antitumor activity against human T47D cells xenografted in nude mouse assessed as tumor weight at 40 mg/kg/day, ip administered daily for 18 days measured every 3 days during compound dosing (reference value: 882 +/- 149 mg); format: functional
[39] = Antitumor activity against human T47D cells xenografted in nude mouse assessed as tumor volume at 20 mg/kg/day, ip administered daily for 18 days measured every 3 days during compound dosing (reference value: 1220 +/- 127 mm3); format: functional
[40] = Antitumor activity against human T47D cells xenografted in nude mouse assessed as tumor volume at 40 mg/kg/day, ip administered daily for 18 days measured every 3 days during compound dosing (reference value: 1220 +/- 127 mm3); format: functional
Mus musculus [41] = test: Acute toxicity in nude mouse xenografted with human T47D cells assessed as effect on the survival rate at 20 to 40 mg/kg/day, ip administered daily for 18 days measured on day 18 post last dose; format: organism-based; details: in vivo, 432 h
Mus musculus [42] = test: Toxicity in nude mouse xenografted with human T47D cells assessed as body weight loss at 20 to 40 mg/kg/day, ip administered daily for 18 days measured every 3 days during compound dosing; format: organism-based; details: in vivo
Mus musculus [43] = test: Toxicity in nude mouse xenografted with human T47D cells assessed as diarrhoea at 20 to 40 mg/kg/day, ip administered daily for 18 days; format: organism-based; details: in vivo, 432 h
Mus musculus [44] = test: Toxicity in nude mouse xenografted with human T47D cells assessed as organ damage at 20 to 40 mg/kg/day, ip administered daily for 18 days; format: organism-based; details: in vivo, 432 h
Mus musculus [45] = test: Toxicity in nude mouse xenografted with human T47D cells assessed as effect on food and water withdrawal at 20 to 40 mg/kg/day, ip administered daily for 18 days measured every 3 days during compound dosing; format: organism-based; details: in vivo
Mus musculus [46] = test: Toxicity in nude mouse xenografted with human T47D cells assessed as incidence of impaired posture or movement at 20 to 40 mg/kg/day, ip administered daily for 18 days measured every 3 days during compound dosing; format: organism-based; details: in vivo

Row | SMILES | IC50 [1] [nM] | IC50 [2] [nM] | IC50 [3] [nM] | IC50 [4] [nM] | IC50 [5] [nM] | IC50 [6] [nM] | IC50 [7] [nM] | IC50 [8] [nM] | IC50 [9] [nM] | Ratio IC50 [10] | Ratio IC50 (MCF7) | Ratio IC50 (T47D [11]) | Ratio IC50 (PC-3) | Ratio IC50 (DU-145) | Ratio IC50 (HCT-116) | Ratio IC50 [12] | Ratio IC50 (HL-60) | EC50 [13] [nM] | Activity (T47D [14]) | EC50 [15] [nM] | further results
1 | COc1cc([C@@H]2c3cc4c(cc3[C@H](O)[C@H]3COC(=O)[C@H]23)OCO4)cc(OC)c1OC [PODOFILOX] | 120 | 10 | 250 | 50 | 10 | 20 | 20 | 480 | 90 | 0.8 | 0.8 | 0.8 | 0.8 | 0.8 | 0.8 | 0.8 | 0.8 | 2.97 | Dose-dependent effect | 8980 | Activity (T47D [16]): Dose-dependent effect; Activity (T47D [17]): 4.97%; Activity (T47D [18]): 4.45%; Activity (T47D [19]): 7.47%; Activity (T47D [20]): 6.98%; Activity (T47D [21]): 11.86%; Activity (T47D [22]): 7.21%; Activity [23]: 200 mg; Activity [24]: 407 mm3; Activity (Mus musculus [25]): Toxic; Activity (Mus musculus [26]): Toxic; Activity (Mus musculus [27]): Toxic; Activity (Mus musculus [28]): Toxic
2 | COc1cc2c(cc1C(=O)Nc1ccc(N(C)C)cc1)CC[C@H]1C(C)(C)[C@@H](O)CC[C@]21C | 320 | 280 | 10 | 540 | 280 | 570 | 590 | 40 | 4540 | 13.8 | 13.8 | 13.8 | 13.8 | 13.8 | 13.8 | 13.8 | 13.8 | 2.56 | Dose-dependent effect | 6420 | Ratio IC50 [29]: 25; Activity (T47D [30]): Active; Activity (T47D [16]): Dose-dependent effect; Activity (T47D [31]): 4.31%; Activity (T47D [32]): 0.49%; Activity (T47D [33]): 16.86%; Activity (T47D [34]): 1.09%; Activity (T47D [35]): 24.58%; Activity (T47D [36]): 1.29%; Activity [37]: 550 mg; Activity [38]: 320 mg; Activity [39]: 654 mm3; Activity [40]: 401 mm3; Activity (Mus musculus [41]): Non-Toxic; Activity (Mus musculus [42]): Non-Toxic; Activity (Mus musculus [43]): Non-Toxic; Activity (Mus musculus [44]): Non-Toxic; Activity (Mus musculus [45]): Non-Toxic; Activity (Mus musculus [46]): Non-Toxic
